Test results taken from PubChem BioAssay AID1963972 (Molecular Pharmacology Branch, DTP, NCI, 2024).

System: 945468-187-T-J2-PDC spheroids viability
Assay: Anticancer human tumor 945468-187-T-J2-PDC patient-derived rectal carcinoma cell line growth inhibition [PI3K]
Settings: spheroids with HUVEC and MSC; for IC50: curve of first compound; for viability, T/C: stronger effect = lower value
Summary of the method: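 Multi-cell spheroids combine tumor cells with HUVEC and human MSCs, treated with targeted agents alone or with inavolisib, alpelisib, duvelisib or copanlisib. Concentrations fall in half-log steps from at or near clinical Cmax, or from 10 microM where Cmax is unknown; viability read-out.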

[1] = second compound 0.0316 µM, first compound 0.0316 µM
[2] = second compound 0.0316 µM, first compound 0.1 µM
[3] = second compound 0.0316 µM, first compound 0.316 µM
[4] = second compound 0.0316 µM, first compound 1 µM
[5] = second compound 0.0316 µM, first compound 3.16 µM
[6] = second compound 0.0316 µM, first compound 10 µM
[7] = second compound 0.1 µM, first compound 0.0316 µM
[8] = second compound 0.1 µM, first compound 0.1 µM
[9] = second compound 0.1 µM, first compound 0.316 µM
[10] = second compound 0.1 µM, first compound 1 µM
[11] = second compound 0.1 µM, first compound 3.16 µM
[12] = second compound 0.1 µM, first compound 10 µM
[13] = second compound 0.316 µM, first compound 0.0316 µM
[14] = second compound 0.316 µM, first compound 0.1 µM
[15] = second compound 0.316 µM, first compound 0.316 µM
[16] = second compound 0.316 µM, first compound 1 µM
[17] = second compound 0.316 µM, first compound 3.16 µM
[18] = second compound 0.316 µM, first compound 10 µM
[19] = second compound 1 µM, first compound 0.0316 µM
[20] = second compound 1 µM, first compound 0.1 µM
[21] = second compound 1 µM, first compound 0.316 µM
[22] = second compound 1 µM, first compound 1 µM
[23] = second compound 1 µM, first compound 3.16 µM
[24] = second compound 1 µM, first compound 10 µM
[25] = second compound 3.16 µM, first compound 0.0316 µM
[26] = second compound 3.16 µM, first compound 0.1 µM
[27] = second compound 3.16 µM, first compound 0.316 µM
[28] = second compound 3.16 µM, first compound 1 µM
[29] = second compound 3.16 µM, first compound 3.16 µM
[30] = second compound 3.16 µM, first compound 10 µM
[31] = second compound 10 µM, first compound 0.0316 µM
[32] = second compound 10 µM, first compound 0.1 µM
[33] = second compound 10 µM, first compound 0.316 µM
[34] = second compound 10 µM, first compound 1 µM
[35] = second compound 10 µM, first compound 3.16 µM
[36] = second compound 10 µM, first compound 10 µM
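Note: spheroids exposed to compounds for seven days before reading.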

## CC1(C)CCC(CN2CCN(c3ccc(C(=O)NS(=O)(=O)c4ccc(NCC5CCOCC5)c([N+](=O)[O-])c4)c(Oc4cnc5[nH]ccc5c4)c3)CC2)=C(c2ccc(Cl)cc2)C1 + CC(Nc1ncnc2nc[nH]c12)c1cc2cccc(Cl)c2c(=O)n1-c1ccccc1
Second compound 0.0316 µM
  IC50: > 10 µM
Second compound 0.1 µM
  IC50: > 10 µM
Second compound 0.316 µM
  IC50: > 10 µM
Second compound 1 µM
  IC50: > 10 µM
Second compound 3.16 µM
  IC50: > 10 µM
Second compound 10 µM
  IC50: > 10 µM
[1]
  viability, T/C: 91.7%
[2]
  viability, T/C: 92.2%
[3]
  viability, T/C: 99.8%
[4]
  viability, T/C: 98.2%
[5]
  viability, T/C: 94%
[6]
  viability, T/C: 81%
[7]
  viability, T/C: 82.3%
[8]
  viability, T/C: 75.7%
[9]
  viability, T/C: 84.5%
[10]
  viability, T/C: 78.6%
[11]
  viability, T/C: 96.5%
[12]
  viability, T/C: 79.1%
[13]
  viability, T/C: 97.1%
[14]
  viability, T/C: 93.4%
[15]
  viability, T/C: 93.2%
[16]
  viability, T/C: 100%
[17]
  viability, T/C: 119%
[18]
  viability, T/C: 80.5%
[19]
  viability, T/C: 97.4%
[20]
  viability, T/C: 87.8%
[21]
  viability, T/C: 103%
[22]
  viability, T/C: 92.9%
[23]
  viability, T/C: 107%
[24]
  viability, T/C: 63.2%
[25]
  viability, T/C: 96%
[26]
  viability, T/C: 115%
[27]
  viability, T/C: 84.8%
[28]
  viability, T/C: 134%
[29]
  viability, T/C: 102%
[30]
  viability, T/C: 86.6%
[31]
  viability, T/C: 94.5%
[32]
  viability, T/C: 81.5%
[33]
  viability, T/C: 104%
[34]
  viability, T/C: 124%
[35]
  viability, T/C: 97.7%
[36]
  viability, T/C: 84.8%

## C[C@@H](NC(=O)c1ncnc(N)c1Cl)c1ncc(C(=O)Nc2cc(C(F)(F)F)c(Cl)cn2)s1 + CC(Nc1ncnc2nc[nH]c12)c1cc2cccc(Cl)c2c(=O)n1-c1ccccc1
Second compound 0.0316 µM
  IC50: > 10 µM
Second compound 0.1 µM
  IC50: > 10 µM
Second compound 0.316 µM
  IC50: > 10 µM
Second compound 1 µM
  IC50: > 10 µM
Second compound 3.16 µM
  IC50: > 10 µM
Second compound 10 µM
  IC50: > 10 µM
[1]
  viability, T/C: 83.6%
[2]
  viability, T/C: 82.8%
[3]
  viability, T/C: 113%
[4]
  viability, T/C: 106%
[5]
  viability, T/C: 109%
[6]
  viability, T/C: 86.2%
[7]
  viability, T/C: 119%
[8]
  viability, T/C: 108%
[9]
  viability, T/C: 85.5%
[10]
  viability, T/C: 68.7%
[11]
  viability, T/C: 121%
[12]
  viability, T/C: 104%
[13]
  viability, T/C: 119%
[14]
  viability, T/C: 90.9%
[15]
  viability, T/C: 99.3%
[16]
  viability, T/C: 92.2%
[17]
  viability, T/C: 93.3%
[18]
  viability, T/C: 80.7%
[19]
  viability, T/C: 92.7%
[20]
  viability, T/C: 108%
[21]
  viability, T/C: 81.3%
[22]
  viability, T/C: 95%
[23]
  viability, T/C: 83.1%
[24]
  viability, T/C: 90.1%
[25]
  viability, T/C: 103%
[26]
  viability, T/C: 110%
[27]
  viability, T/C: 77.7%
[28]
  viability, T/C: 124%
[29]
  viability, T/C: 110%
[30]
  viability, T/C: 104%
[31]
  viability, T/C: 83%
[32]
  viability, T/C: 123%
[33]
  viability, T/C: 110%
[34]
  viability, T/C: 84.4%
[35]
  viability, T/C: 119%
[36]
  viability, T/C: 108%
